Results reported in US10662203B2, “Pyrido[2,3-b]indole compounds for the treatment and prophylaxis of bacterial infection” (Hoffmann-La Roche Inc., priority 2017, dated 2020).
Converted amounts (≈) assume the structure as drawn. Read-outs that look alike come from different tables or passages of the source.

Legend:
[1] = test system: multiple species and strains; experiment: Minimal inhibitory concentration (MIC) and MIC90 determination, broth microdilution (CLSI M07-A10); conditions: S9: P. aeruginosa ATCC BAA-2113
Protocol: Minimal Inhibitory Concentration (MIC) and MIC90 Determination:
The MIC of antibacterial compounds against multiple species and strains was determined using the broth microdilution method according to M07-A10 Clinical and Laboratory Standards Institute (CLSI) guidelines (CLSI (2015) Methods for dilution antimicrobial susceptibility tests for bacteria that grow aerobically; Approved Standard, Tenth Edition. CLSI Document M7-A10 (ISBN 1-56238-987-4). Wayne, Pa.: Clinical and Laboratory Standards Institute, 19087, USA.). In short, bacterial strain preparation was performed on D1 and D2. […] 5-10 well-isolated colonies of similar morphology were selected and re-streaked onto fresh agar plates using sterile loops and incubated for 20-24 hr at 35±2° C. Bacterial strains were subcultured two times to ensure fresh inoculums for MIC screening. […] Alternatively, 1-2 colonies were transferred into 500 μL of saline and OD600 was adjusted to ˜0.1 using an OD meter. Bacterial inoculum was diluted by 1:280 for Gram-positive strains and 1:400 for Gram-negative strains into corresponding medium broth (CAMHB, CAMHB+3% lysed horse blood, HTM) (e.g. 35.6 μL of inoculum into 10 mL of CAMHB or 25 μL of inoculum into 10 mL of CAMHB). […] Compound stock concentration=[(highest testing concentration)×100 μL/2 μL] (e.g. if the required highest testing concentration is 64 μg/mL in assay plates, stock concentration=64 μg/mL×100 μL/2 μL=3.2 mg/mL). […] of each well was transferred in a new MTP, which served as the test plate by subsequent inoculation. The bacterial suspension prepared above is dispensed at 98 μL/well within 15 minutes after preparation. Negative controls (lack of bacterial cells) and growth control wells (lack of compound) were included in all plates. MTPs were incubated for 18-24 hours at 35±2° C. in ambient air. The MIC was recorded and CFUs were calculated on Day 4. The assay plate was placed on the top of MIC reader, and the magnification mirror was adjusted to read each wells, recording growth status as raw data. Photo images of each assay plates were recorded using Q Count 530 (Spiral Biotech). The MIC value of each compound, expressed as […], was determined as the lowest concentration required for complete growth inhibition (no visible growth).

[2] = Single dose PK study (SDPK) in female CD-1 mouse; assay type: in vivo; conditions: MOUSE IV; for clearance: female, CD-1, plasma, read-out: CL total
Protocol: Single Dose PK Study (SDPK) in Female CD-1 Mouse: The single dose PK in female CD-1 mouse was performed to assess compound's pharmacokinetic properties. One group of animals were dosed via bolus intravenous (IV) of the respective compound. Blood samples (approximately 30 μL) were collected via saphenous vein at 5 mins, 15 min, 30 min, 1 hr, 2 hr, 4 hr and 7 hr. For last time point (24 hr), samples were collected via cardiac puncture while the mouse was under anesthesia. Blood samples were placed into tubes containing EDTA-K2 anticoagulant (2 μL of 0.5M per tube) and centrifuged at 3000 rpm for 10 minutes at 4° C. within half an hour to separate plasma from the samples. Following centrifugation, plasma samples were stored in polypropylene tubes, quick frozen over dry ice and kept at −70±10° C. until LC/MS/MS analysis. The pharmacokinetic parameters were calculated using non-compartmental module of WinNonlin® Professional 6.4.

[3] = Lyophilisation solubility assay (LYSA); assay type: physicochemical; conditions: phosphate buffer, pH 6.5, aqueous buffer, thermodynamic from solid, 0.05 M phosphate buffer, HPLC-UV
Procedure, shortened: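 Duplicate samples made from 10 mM DMSO stock. DMSO evaporated and the residue taken up in 0.05 M phosphate buffer, pH 6.5, stirred 1 h and shaken 2 h, then left overnight. Filtrate and its 1/10 dilution quantified by HPLC-UV.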

S. aureus (ATCC29213) = experiment: 50% growth inhibitory concentration (IC50) determination assay; assay type: cell-based; conditions: Staphylococcus aureus, Iso-Sensitest broth, 0.098 = detection limit
Procedure, shortened: (§1)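 Compounds were two-fold serially diluted from 50 to 0.097 μM final in Iso-Sensitest broth, inoculated to ~5×10^5 CFU/mL and incubated at 35±2° C. Growth was followed by OD at 600 nm every 20 minutes for 16 h.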

[4] = test system: K. pneumoniae (ATCC10031); experiment: as above; assay type: cell-based; conditions: Klebsiella pneumoniae, Iso-Sensitest broth, 0.098 = detection limit
Procedure, shortened: as §1

A. baumannii (ATCC17978) = experiment: as above; assay type: cell-based; conditions: Acinetobacter baumannii, ATCC17978, A. baumannii ATCC17978; Iso-Sensitest broth; 0.098 = detection limit
Procedure, shortened: as §1

[5] = Cytotoxicity assay (HepG2, CellTiter-Blue cell viability); assay type: cell-based; conditions: human; HepG2 cells, 3 days treatment; "*": the detection limit; read-out: CC50
Procedure, shortened: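 HepG2 cells (1.2×10^4 per well) exposed to compounds for 3 days; viability then read by CellTiter-Blue fluorescence after 3 h at 37 °C. CC50 from four-parameter logistic fit.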

SMILES | MIC S9 [1] | AUC total ([2]; 1.0 mg/kg-Solution) [ng·h/mL] | clearance ([2]; 1.0 mg/kg-Solution) [mL/min/kg] | solubility thermodynamic [3] [µg/mL] | IC50 (S. aureus (ATCC29213)) [µM] | IC50 [4] [µM] | IC50 (A. baumannii (ATCC17978)) [µM] | CC50 at 3 days [5] [nM] | AUC total ([2]; 0.7 mg/kg-Solution) [ng·h/mL] | clearance ([2]; 0.7 mg/kg-Solution) [mL/min/kg]
CNc1cc(F)c(F)c2c1[nH]c1ncc(-c3cnc4c(c3)c(=O)c(C(=O)O)cn4C)c(N3CC[C@H]4CN(C)C[C@H]43)c12 [Example 3.03A] | 1.749 | 249.6 | 66.9 | 137 (≈ 245 µM) | < 0.098 | < 0.098 | 0.039 | 38400 |  | 
CNc1cc(F)cc2c1[nH]c1ncc(-c3cnc4c(c3)c(=O)c(C(=O)O)cn4CC(C)O)c(N3CCOCC3)c12 (stereo not shown) [Example 1.53] |  | 211.3 | 83.5 |  | < 0.098 | < 0.098 | 0.764 | > 100000 |  | 
CNc1cc(F)c(F)c2c1[nH]c1ncc(-c3cnc4c(c3)c(=O)c(C(=O)O)cn4C)c(N3CCC(O)CC3)c12 [Example 1.43] |  | 235.1 | 66.3 |  | < 0.098 | < 0.098 | 0.663 | 39300 |  | 
CNc1cc(F)c(F)c2c1[nH]c1ncc(-c3cnc4c(c3)c(=O)c(C(=O)O)cn4NC)c(N3CC[C@@H]4CN(C)C[C@@H]43)c12 [Example 3.01B, 6-[5,6-difluoro-8-(methylamino)-4-[(3aR,6aR)-5-methyl-2,3,3a,4,6,6a-hexahydropyrrolo[2,3-c]pyrrol-1-yl]-9H-pyrido[2,3-b]indol-3-yl]-1-(methylamino)-4-oxo-1,8-naphthyridine-3-carboxylic acid] |  | 156.1 | 105 | 265 (≈ 461 µM) | 0.168 | < 0.098 | 0.56 | 39400 |  | 
CNc1cc(F)c(F)c2c1[nH]c1ncc(-c3cnc4c(c3)c(=O)c(C(=O)O)cn4NC)c(N3C[C@H]4CCN(C)[C@H]4C3)c12 [Example 3.07A] |  | 214.0 | 77.4 | 20 (≈ 34.8 µM) | < 0.098 | < 0.098 | 0.076 | > 100000 |  | 
CNc1cc(F)c(F)c2c1[nH]c1ncc(-c3cnc4c(c3)c(=O)c(C(=O)O)cn4C)c(N3CC4C(N(C)C)CO[C@@H]4C3)c12 (stereo partly shown) [Example 1.286] | 3.973 |  |  |  |  |  | 0.143 |  |  | 
CNc1cc(F)c(F)c2c1[nH]c1ncc(-c3cnc4c(c3)c(=O)c(C(=O)O)cn4C)c(N3CC[C@H]4CN(C)CC43)c12 (stereo partly shown) [Example 1.85] | 6.995 | 177.0 | 94.8 | 101 (≈ 180 µM) | < 0.098 | < 0.098 | 0.089 | 35200 |  | 
CNc1cc(F)cc2c1[nH]c1ncc(-c3cnc4c(c3)c(=O)c(C(=O)O)cn4NC)c(N3CC[C@H]4CN(C)C[C@H]43)c12 [Example 3.05A] | 6.957 | 356.4 | 50.5 | 535 (≈ 961 µM) | < 0.098 | < 0.098 | 0.055 | 54500 |  | 
CNc1cc(F)c(F)c2c1[nH]c1ncc(-c3cnc4c(c3)c(=O)c(C(=O)O)cn4CC(N)C(C)C)c(N3CCOCC3)c12 (stereo not shown) [Example 1.57] |  |  |  |  | < 0.098 |  | 0.198 | 35900 | 190.8 | 84.6
CNc1cc(F)c(F)c2c1[nH]c1ncc(-c3cnc4c(c3)c(=O)c(C(=O)O)cn4C)c(N3CC[C@H]4CCN(C)C4C3)c12 (stereo partly shown) [Example 1.196] |  | 177.4 | 98.4 | 25 (≈ 43.6 µM) | < 0.098 | < 0.098 | 0.102 |  |  | 
CNc1c(F)c(F)cc2c1[nH]c1ncc(-c3cnc4c(c3)c(=O)c(C(=O)O)cn4C3CCNC3)c(N(C)C)c12 (stereo not shown) [Example 1.55] |  | 165.9 | 98.7 |  | 0.101 |  | 0.334 | 49800 |  | 
CNc1cc(F)cc2c1[nH]c1ncc(-c3cnc4c(c3)c(=O)c(C(=O)O)cn4C)c(N3CC[C@H]4CN(C)C[C@H]43)c12 [Example 3.04A] | 6.77 | 241.6 | 68.9 | 485 (≈ 896 µM) | < 0.098 | < 0.098 | 0.035 | 49500 |  | 
CNc1cc(F)c(F)c2c1[nH]c1ncc(-c3cnc4c(c3)c(=O)c(C(=O)O)cn4C)c(N3C[C@H]4CCN(C)[C@H]4C3)c12 [Example 3.08A] |  | 190.5 | 86.7 | 119 (≈ 213 µM) | < 0.098 | < 0.098 | 0.049 |  |  | 
CNc1cc(F)c(C#N)c2c1[nH]c1ncc(-c3cnc4c(c3)c(=O)c(C(=O)O)cn4NC)c(N3CC[C@H]4CN(C)CC43)c12 (stereo partly shown) [Example 1.275] | 4.348 |  |  |  |  |  | 0.281 |  |  | 
CNc1cc(F)c(F)c2c1[nH]c1ncc(-c3cnc4c(c3)c(=O)c(C(=O)O)cn4C)c(N3CC4[C@H](CCN4C)C3)c12 (stereo partly shown) [Example 1.192] |  | 235.0 | 69.6 | 58 (≈ 104 µM) | < 0.098 | < 0.098 | 0.105 |  |  | 
CNc1cc(F)c(C#N)c2c1[nH]c1ncc(-c3cnc4c(c3)c(=O)c(C(=O)O)cn4C)c(N3CC[C@H]4CN(C)C[C@H]43)c12 [Example 1.298] | 17.016 | 274.0 | 62.7 |  |  |  |  |  |  | 
CNc1cc(F)cc2c1[nH]c1ncc(-c3cnc4c(c3)c(=O)c(C(=O)O)cn4NC)c(N3CC[C@H]4CN(C)CC43)c12 (stereo partly shown) [Example 1.86] |  | 194.1 | 86.5 | > 805 | 0.15 | < 0.098 | 0.175 | 43400 |  | 
CNc1cc(F)c(F)c2c1[nH]c1ncc(-c3cnc4c(c3)c(=O)c(C(=O)O)cn4C)c(N3CCC[C@H]3CN(C)C)c12 [Example 1.14] | 7.02 |  |  | 407 (≈ 725 µM) | < 0.098 | < 0.098 | 0.154 | 29100 |  | 
CNc1cc(F)c(C#N)c2c1[nH]c1ncc(-c3cnc4c(c3)c(=O)c(C(=O)O)cn4C)c(N3CC[C@H]4CN(C)CC43)c12 (stereo partly shown) [Example 1.274] | 8.508 |  |  | 118 (≈ 208 µM) |  |  | 0.117 |  |  | 
CNc1cc(F)c(F)c2c1[nH]c1ncc(-c3cnc4c(c3)c(=O)c(C(=O)O)cn4NC)c(N3CC[C@H]4CN(C)CC43)c12 (stereo partly shown) [Example 1.189] | 4.304 |  |  | 255 (≈ 444 µM) | < 0.098 | < 0.098 | 0.095 | 41200 |  | 
